According to PMC5768801, “The PII signaling protein from red algae represents an evolutionary link between cyanobacterial and Chloroplastida PII proteins” (Scientific Reports, 2018):
“Also recorded” adds a separate entry of the source.

Columns and labels:
ScNAGK = target: T1, ScNAGK (Synechocystis sp., UniProt P73326); assay: AGPR-coupled NAGK activity assay without PpPII; type: biochemical, Synechocystis sp. PCC 6803; details: absence of PpPII, comparing 0 and 4 mM ADP, at 1 mM or 2 mM ATP
T1 sequence (P73326 1-297): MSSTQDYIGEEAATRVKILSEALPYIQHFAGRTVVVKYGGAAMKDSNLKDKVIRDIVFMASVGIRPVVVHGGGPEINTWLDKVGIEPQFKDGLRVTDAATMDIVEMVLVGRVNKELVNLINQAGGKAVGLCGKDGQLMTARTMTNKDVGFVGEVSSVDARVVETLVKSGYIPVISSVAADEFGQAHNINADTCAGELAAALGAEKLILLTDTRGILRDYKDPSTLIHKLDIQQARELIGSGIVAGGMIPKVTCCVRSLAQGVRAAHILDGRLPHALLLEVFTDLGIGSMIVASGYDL
From the text: (§1) All available structural information of PII proteins revelas that ATP and ADP bind to the same binding sites[2],[7]. When ATP and ADP are simultaneously present, they will compete for binding to the PII trimer. Since, the ATP/ADP binding site of the red algal PpPII protein is highly conserved (Fig. 1), competition between the nucleotides will occur. Since the activation of NAGK by PII is dependent on the ATP-ligated state of PII[9] and ADP inhibits PII-NAGK complex formation[9],[31], competition between ATP/ADP for PII binding can be monitored by measuring NAGK activity[31] under different ATP/ADP ratios. For this assay, we used an AGPR-coupled activity assay for NAGK[33], which allows measurement of NAGK activity in presence of ADP. Different concentrations of ADP were added to reaction mixtures containing either 1 mM or 2 mM ATP, in the absence or presence of PpPII (Fig. 8). Addition of ADP led to a monotonical and shallow decrease in the activity of ScNAGK at both fixed ATP concentration. […]
(§2) The change in NADPH absorbance was recorded at 340 nm as described previously[31],[33], in a reaction buffer composed of 50 mM potassium phosphate (pH 7.0), 50 mM KCl, 20 mM MgCl2, 0.2 mM NADPH and 0.5 mM DTT. […] The reaction was started by the addition of ScNAGK and was recorded for 10 min with a spectrophotometer (SPECORD 210 PLUS, Analytik Jena). Kinetic constants were calculated as descried above.

PhyscoPII = assay: ITC binding of small effector molecules to plant-moss PhyscoPII; design: species or system Physcomitrella patens
Experimental: To gain additional insights into the ligand binding properties of PpPII in comparison to cyanobacterial and chloroplastid PII proteins, isothermal titration calorimetry (ITC) experiments were performed using highly purified Strep-tagged or His-tagged recombinant PpPII, SyPII, CrPII, and PhyscoPII proteins (Supplementary Fig. S1) with different protein/ligand/ concentrations to determine the best fitting conditions of the binding model. The titration experiments were repeated with different protein preparations to confirm the reproducibility of the results. The raw isothermal data were fitted into one-binding site as well as three-sequential binding sites to define the best fitting model. Fitting using a one binding site model states an average Kd value for all available binding sites and the mean of the stoichiometry of bound ligands.
The ITC experiments were done using a VP-ITC microcalorimeter (MicroCal, LCC). All details for determination of binding constants for small effector molecules using ITC are fully described in the supplementary information. Heat isotherms of the dilution of the ligand in the cell buffer were collected in a blank run for each experiment in the absence of protein. The binding isotherms were calculated from received data and fitted to one-site and three-sequential binding sites models using the MicroCal ORIGIN software (Northampton) as described. All titrations were performed in duplicates with different purification batches of recombinant PII proteins. The association binding constant (Ka) was generated from the software by de-convolution and curve fitting. For calculation of dissociation constant (Kd), the Ka value was inversed.
Supplementary Information […]
Determination of Binding Constants for Small Effector Molecules using Isothermal […]
The binding of the small effector molecules to the recombinant PII proteins was tested using isothermal titration calarmity (ITC); VP-ITC microcalorimeter (MicroCal). All titrations were performed on 20°C using […] injection syringe with injection 6 µl or 10 µl of the tested ligands for 45 or 29 times, respectively into the cell (1.4 ml) with continuous stirring at 155 rpm. All tested ligands were high grade, prepared freshly in the same buffer of the protein and purchased from Sigma-Aldrich. Heat isotherms for the dilution of the ligand in the cell buffer were collected in a blank run in the absence of protein. The received calorimetric data were analyzed using MicroCal Origin software and fitted into one-site and three-sequential binding sites models, as indicated by the manufacture for calculation of binding isotherms9. For data reproducibility, the titrations were performed in duplicates with different purification batches of recombinant PII proteins. The association binding constant (Ka) was generated from the software by de-convolution and curve fitting. For calculation of dissociation constant (Kd), the Ka value was inversed.
5 mM MgCl2, 0.5 mM EDTA, and 10% glycerol (pH 7.6). […]
For determination the binding isotherms of plant-moss PhyscoPII protein, a strep-tagged recombinant protein (5 or 6 µM trimeric concentration) was used in system composed of 20 mM

[1] = target: ScNAGK in the presence of PpPII (Porphyra purpurea, UniProt P51254); assay: AGPR-coupled NAGK activity assay with PpPII; type: biochemical, Synechocystis sp. PCC 6803; Porphyra purpurea; details: 4 mM ADP with 1 mM ATP
From the text: as §1, §2

Sequence of ScNAGK in the presence of PpPII (P51254 whole entry): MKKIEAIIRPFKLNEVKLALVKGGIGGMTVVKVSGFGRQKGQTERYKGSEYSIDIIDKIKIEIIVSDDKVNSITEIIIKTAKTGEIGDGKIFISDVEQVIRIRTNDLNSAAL

For `Nc1ncnc2c1ncn2[C@@H]1O[C@H](COP(=O)(O)OP(=O)(O)O)[C@@H](O)[C@H]1O` [ADP], the “reduction of ScNAGK activity” value (ScNAGK) was “about 1.8 fold”, the “Average Kd (one-site binding model)” value (PhyscoPII; in presence 2-OG) was “No binding” and the “Kd1 (three-sites binding model)” value (PhyscoPII; in presence 2-OG) was “No binding”. The “Kd2 (three-sites binding model)” value (PhyscoPII; in presence 2-OG) was “No binding”, the “Kd3 (three-sites binding model)” value (PhyscoPII; in presence 2-OG) was “No binding” and the “Average Kd (one-site binding model)” value (PhyscoPII; titrant alone) was “unable to detect any binding; also recorded: No binding”. The “Kd1 (three-sites binding model)” value (PhyscoPII; titrant alone) was “No binding”, the “Kd2 (three-sites binding model)” value (PhyscoPII; titrant alone) was “No binding” and the “Kd3 (three-sites binding model)” value (PhyscoPII; titrant alone) was “No binding”. For the same molecule, the “ScNAGK activity in the presence of PpPII at the highest ADP/ATP ratio” value [1] was “as low as ScNAGK activity in the absence of PpPII”.
